From ChEMBL document CHEMBL1909046, “DrugMatrix in vitro pharmacology data”

Tests used:
[1] = biological target: T1, Cholecystokinin receptor type A (Homo sapiens, UniProt P32238); type: cell membranes, Membrane; conditions: 1321-n1; further: in other assays of this panel Not Active means under 50% inhibition at 10 µM
T1 sequence (P32238 whole entry): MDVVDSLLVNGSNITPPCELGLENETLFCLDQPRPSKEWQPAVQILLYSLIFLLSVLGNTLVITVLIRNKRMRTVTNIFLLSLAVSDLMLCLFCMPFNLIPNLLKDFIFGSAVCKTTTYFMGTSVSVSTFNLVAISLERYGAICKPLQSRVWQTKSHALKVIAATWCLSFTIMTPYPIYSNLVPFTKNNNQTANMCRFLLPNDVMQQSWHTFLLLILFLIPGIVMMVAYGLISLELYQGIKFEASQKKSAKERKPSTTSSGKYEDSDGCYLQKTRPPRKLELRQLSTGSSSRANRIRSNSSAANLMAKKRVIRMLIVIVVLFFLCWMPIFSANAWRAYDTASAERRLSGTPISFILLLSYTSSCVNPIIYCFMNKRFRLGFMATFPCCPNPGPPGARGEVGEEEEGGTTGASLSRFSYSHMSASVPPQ

[2] = biological target: C-C chemokine receptor type 5 (Homo sapiens, UniProt P51681); type: cell membranes, Membrane; conditions: hek293; further: in other assays of this panel Not Active means under 50% inhibition at 10 µM
[3] = DRUGMATRIX: Interleukin IL-1 radioligand binding (ligand: [125I] interleukin 1beta); type: cell membranes, Membrane; conditions: nih3t3; Not Active = under 50% inhibition at 10 µM
[4] = biological target: Sodium-dependent dopamine transporter (Homo sapiens, UniProt Q01959); experiment: DRUGMATRIX: Dopamine Transporter radioligand binding (ligand: [125I] RTI-55); type: cell membranes, CHO-K1, Membrane; conditions: Not Active = under 50% inhibition at 10 µM; for Ki: read-out: Ki
[5] = biological target: Mitogen-activated protein kinase 14 (Homo sapiens, UniProt Q16539); design: species or system Escherichia coli;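 further: inhibition of p38alpha enzyme activity in a biochemical kinase assay, with myelin basic protein serving as substrate; in other assays of this panel Not Active means under 50% inhibition at 10 µM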
B2 bradykinin receptor = biological target: T2, B2 bradykinin receptor (Homo sapiens, UniProt P30411); type: cell membranes, Membrane; conditions: chem-1; further: in other assays of this panel Not Active means under 50% inhibition at 10 µM
T2 sequence (P30411 whole entry): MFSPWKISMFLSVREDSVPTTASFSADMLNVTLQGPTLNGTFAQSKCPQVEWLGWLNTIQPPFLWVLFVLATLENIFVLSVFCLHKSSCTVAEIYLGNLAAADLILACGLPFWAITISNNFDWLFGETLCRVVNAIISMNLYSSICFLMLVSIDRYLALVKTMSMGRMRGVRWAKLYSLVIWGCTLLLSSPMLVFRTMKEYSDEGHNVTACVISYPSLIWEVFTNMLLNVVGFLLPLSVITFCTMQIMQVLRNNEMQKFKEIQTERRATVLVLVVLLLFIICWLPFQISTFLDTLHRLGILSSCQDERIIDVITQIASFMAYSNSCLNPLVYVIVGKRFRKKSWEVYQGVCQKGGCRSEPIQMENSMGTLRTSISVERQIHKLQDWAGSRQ

[6] = biological target: Aldo-keto reductase family 1 member B1 (Rattus norvegicus, UniProt P07943); experiment: biochemical; type: tissue-based, Lens of camera-type eye

Chain of Mitogen-activated protein kinase 14 (Q16539 whole entry): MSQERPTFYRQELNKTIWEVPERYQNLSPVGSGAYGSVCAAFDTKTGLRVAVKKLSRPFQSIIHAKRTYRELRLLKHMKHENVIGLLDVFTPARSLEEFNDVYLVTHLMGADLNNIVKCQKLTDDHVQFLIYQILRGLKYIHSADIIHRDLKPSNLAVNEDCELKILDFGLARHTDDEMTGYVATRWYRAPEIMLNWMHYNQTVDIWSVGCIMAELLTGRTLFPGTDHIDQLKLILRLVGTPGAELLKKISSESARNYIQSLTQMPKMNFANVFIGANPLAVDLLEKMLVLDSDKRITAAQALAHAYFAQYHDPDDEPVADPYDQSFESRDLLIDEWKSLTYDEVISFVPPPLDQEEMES
Chain of C-C chemokine receptor type 5 (P51681 whole entry): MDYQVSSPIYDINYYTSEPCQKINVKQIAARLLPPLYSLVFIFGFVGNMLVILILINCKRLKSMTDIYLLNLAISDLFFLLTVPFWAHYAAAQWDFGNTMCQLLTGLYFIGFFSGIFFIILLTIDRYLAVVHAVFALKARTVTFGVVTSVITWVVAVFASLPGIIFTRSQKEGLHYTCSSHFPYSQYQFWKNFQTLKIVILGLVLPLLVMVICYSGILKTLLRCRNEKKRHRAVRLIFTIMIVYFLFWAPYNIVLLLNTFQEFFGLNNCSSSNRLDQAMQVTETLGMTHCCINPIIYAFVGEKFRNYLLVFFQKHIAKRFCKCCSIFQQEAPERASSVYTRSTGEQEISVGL
Chain of Sodium-dependent dopamine transporter (Q01959 whole entry): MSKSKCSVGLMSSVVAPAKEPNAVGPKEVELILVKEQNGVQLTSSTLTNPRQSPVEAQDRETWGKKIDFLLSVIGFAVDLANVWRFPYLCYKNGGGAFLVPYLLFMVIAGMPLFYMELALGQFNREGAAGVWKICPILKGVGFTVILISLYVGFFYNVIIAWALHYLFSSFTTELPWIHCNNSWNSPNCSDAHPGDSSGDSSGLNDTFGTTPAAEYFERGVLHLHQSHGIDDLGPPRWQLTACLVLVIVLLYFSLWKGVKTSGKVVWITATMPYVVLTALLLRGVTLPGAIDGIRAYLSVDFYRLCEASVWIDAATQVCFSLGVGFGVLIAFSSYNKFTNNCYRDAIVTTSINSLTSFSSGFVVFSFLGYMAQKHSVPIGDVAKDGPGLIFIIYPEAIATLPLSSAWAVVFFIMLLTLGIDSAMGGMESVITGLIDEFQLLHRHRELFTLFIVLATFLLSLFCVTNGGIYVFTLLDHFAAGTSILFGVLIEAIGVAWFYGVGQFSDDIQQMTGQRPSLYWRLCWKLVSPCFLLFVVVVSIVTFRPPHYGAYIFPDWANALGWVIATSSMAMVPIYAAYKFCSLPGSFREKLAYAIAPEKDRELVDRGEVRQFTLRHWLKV

Row | Compound | IC50 [1] | IC50 [2] | IC50 [3] | Ki [3] | IC50 ([4]; read-out: IC50) [µM] | Ki [4] [µM] | IC50 [5] | IC50 (B2 bradykinin receptor) | IC50 [6] | IC50 ([4]; cho-k1) | IC50 ([6]; read-out: IC50) [nM]
1 | CC(C)(C)NC(=O)[C@@H]1C[C@@H]2CCCC[C@@H]2CN1C[C@@H](O)[C@H](Cc1ccccc1)NC(=O)[C@H](CC(N)=O)NC(=O)c1ccc2ccccc2n1 | Not Active | Not Active | Not Active | Not Active | 35.1 | 27.9 | Not Active | Not Active | Not Active |  | 
2 | CC(=O)[C@@]1(O)CC[C@H]2[C@@H]3C[C@H](C)C4=CC(=O)CC[C@]4(C)[C@H]3CC[C@@]21C | Not Active | Not Active | Not Active | Not Active |  |  | Not Active | Not Active | Not Active | Not Active | 
3 | N[C@@H](Cc1ccc(N(CCCl)CCCl)cc1)C(=O)O | Not Active | Not Active | Not Active | Not Active |  |  | Not Active | Not Active | Not Active | Not Active | 
4 | CCCCc1oc2ccccc2c1C(=O)c1cc(I)c(OCCN(CC)CC)c(I)c1 [AMIODARONE] | Not Active | Not Active |  |  |  |  | Not Active |  | Not Active |  | 
5 | OCCN(CCO)c1nc(N2CCCCC2)c2nc(N(CCO)CCO)nc(N3CCCCC3)c2n1 [DIPYRIDAMOLE] | Not Active | Not Active | Not Active | Not Active |  |  | Not Active | Not Active | Not Active | Not Active | 
6 | Cc1oncc1C(=O)Nc1ccc(C(F)(F)F)cc1 [LEFLUNOMIDE] | Not Active | Not Active | Not Active | Not Active | 2.88 | 2.29 | Not Active | Not Active | Not Active |  | 
7 | c1ccc([C@H]2CN3CCSC3=N2)cc1 [LEVAMISOLE] | Not Active | Not Active | Not Active | Not Active |  |  | Not Active | Not Active | Not Active | Not Active | 
8 | N[C@@H](Cc1ccc(O)c(O)c1)C(=O)O [LEVODOPA] | Not Active | Not Active | Not Active | Not Active |  |  | Not Active | Not Active | Not Active | Not Active | 
9 | N[C@@H](Cc1cc(I)c(Oc2ccc(O)c(I)c2)c(I)c1)C(=O)O [LIOTHYRONINE] | Not Active | Not Active |  |  |  |  | Not Active | Not Active | Not Active | Not Active | 
10 | O=NN(CCCl)C(=O)NC1CCCCC1 [LOMUSTINE] | Not Active | Not Active | Not Active | Not Active |  |  | Not Active | Not Active | Not Active | Not Active | 
11 | CCOC(=O)N1CCC(=C2c3ccc(Cl)cc3CCc3cccnc32)CC1 [LORATADINE] | Not Active | Not Active | Not Active | Not Active |  |  | Not Active | Not Active | Not Active | Not Active | 
12 | Cn1ccnc1S [METHIMAZOLE] | Not Active | Not Active | Not Active | Not Active |  |  | Not Active | Not Active | Not Active | Not Active | 
13 | CC[C@@H](CO)NC(=O)[C@@H]1C=C2c3cccc4[nH]cc(c34)C[C@H]2N(C)C1 [METHYLERGONOVINE] | Not Active | Not Active | Not Active | Not Active |  |  | Not Active | Not Active | Not Active | Not Active | 
14 | COc1nc(C)nc(Cl)c1NC1=NCCN1 [MOXONIDINE] | Not Active | Not Active | Not Active | Not Active |  |  | Not Active | Not Active | Not Active | Not Active | 
15 | COc1c(C)c2c(c(O)c1C/C=C(\C)CCC(=O)O)C(=O)OC2 [MYCOPHENOLIC ACID] | Not Active | Not Active | Not Active | Not Active |  |  | Not Active | Not Active | Not Active | Not Active | 
16 | O=c1ncn2nc(Sc3ccc(F)cc3F)ccc2c1-c1c(Cl)cccc1Cl [NEFLAMAPIMOD] | Not Active | Not Active | Not Active | Not Active | 8.1 | 6.43 |  | Not Active | Not Active |  | 
17 | CN1CCN(CCCN2c3ccccc3Sc3ccc(Cl)cc32)CC1 [PROCHLORPERAZINE] | Not Active | Not Active |  |  |  |  | Not Active | Not Active | Not Active |  | 
18 | CO[C@H]1/C=C/O[C@@]2(C)Oc3c(C)c(O)c4c(O)c(c(/C=N/N5CCN(C)CC5)c(O)c4c3C2=O)NC(=O)/C(C)=C\C=C\[C@H](C)[C@H](O)[C@@H](C)[C@@H](O)[C@@H](C)[C@H](OC(C)=O)[C@@H]1C [RIFAMPIN] | Not Active | Not Active | Not Active | Not Active |  |  | Not Active | Not Active | Not Active | Not Active | 
19 | Nc1nc2ccc(OC(F)(F)F)cc2s1 [RILUZOLE] | Not Active | Not Active | Not Active | Not Active |  |  | Not Active | Not Active | Not Active | Not Active | 
20 | Cc1nc2n(c(=O)c1CCN1CCC(c3noc4cc(F)ccc34)CC1)CCCC2 [RISPERIDONE] | Not Active | Not Active |  |  |  |  | Not Active | Not Active | Not Active | Not Active | 
21 | C=CCC1(C(C)CCC)C(=O)NC(=O)NC1=O (stereo unspecified) [SECOBARBITAL] | Not Active | Not Active | Not Active | Not Active |  |  | Not Active | Not Active | Not Active | Not Active | 
22 | C[C@@H]1CN(c2c(F)c(N)c3c(=O)c(C(=O)O)cn(C4CC4)c3c2F)C[C@H](C)N1 [SPARFLOXACIN] | Not Active | Not Active | Not Active | Not Active |  |  | Not Active | Not Active | Not Active | Not Active | 
23 | Cc1noc(NS(=O)(=O)c2ccc(N)cc2)c1C [SULFISOXAZOLE] | Not Active | Not Active | Not Active | Not Active |  |  | Not Active | Not Active | Not Active | Not Active | 
24 | CSc1ccc(/C=C2/C(C)=C(CC(=O)O)c3cc(F)ccc32)cc1 [SULINDAC SULFIDE] | Not Active | Not Active | Not Active | Not Active |  |  | Not Active | Not Active |  | Not Active | 84
25 | Nc1c2c(nc3ccccc13)CCCC2 [TACRINE] | Not Active | Not Active | Not Active | Not Active |  |  | Not Active | Not Active | Not Active | Not Active | 
26 | CC/C(=C(\c1ccccc1)c1ccc(OCCN(C)C)cc1)c1ccccc1 [TAMOXIFEN] | Not Active | Not Active |  |  | 1.84 | 1.46 | Not Active |  | Not Active |  | 
27 | CC(C)N1CCN(c2ccc(OCC3COC(Cn4cncn4)(c4ccc(Cl)cc4Cl)O3)cc2)CC1 (stereo unspecified) [TERCONAZOLE] | Not Active | Not Active |  |  |  |  | Not Active | Not Active | Not Active |  | 
28 | Nc1nc2nc[nH]c2c(=S)[nH]1 [THIOGUANINE] | Not Active | Not Active | Not Active | Not Active |  |  | Not Active | Not Active | Not Active | Not Active | 
29 | Cc1cccc(N(C)C(=S)Oc2ccc3ccccc3c2)c1 [TOLNAFTATE] | Not Active | Not Active | Not Active | Not Active |  |  | Not Active | Not Active | Not Active | Not Active | 
30 | NC[C@H]1CC[C@H](C(=O)O)CC1 [TRANEXAMIC ACID] | Not Active | Not Active | Not Active | Not Active |  |  | Not Active | Not Active | Not Active | Not Active | 
